The target in data set [1] is T1, CARM1 (Homo sapiens, UniProt Q86X55).
T1 construct: FLAG-CARM1 (amino acids 2–585)-His for biochemical studies was expressed in 293 F mammalian cells; made in house; host or cells: 293F mammalian cells
T1 sequence (Q86X55 2-585 isoform Q86X55-1): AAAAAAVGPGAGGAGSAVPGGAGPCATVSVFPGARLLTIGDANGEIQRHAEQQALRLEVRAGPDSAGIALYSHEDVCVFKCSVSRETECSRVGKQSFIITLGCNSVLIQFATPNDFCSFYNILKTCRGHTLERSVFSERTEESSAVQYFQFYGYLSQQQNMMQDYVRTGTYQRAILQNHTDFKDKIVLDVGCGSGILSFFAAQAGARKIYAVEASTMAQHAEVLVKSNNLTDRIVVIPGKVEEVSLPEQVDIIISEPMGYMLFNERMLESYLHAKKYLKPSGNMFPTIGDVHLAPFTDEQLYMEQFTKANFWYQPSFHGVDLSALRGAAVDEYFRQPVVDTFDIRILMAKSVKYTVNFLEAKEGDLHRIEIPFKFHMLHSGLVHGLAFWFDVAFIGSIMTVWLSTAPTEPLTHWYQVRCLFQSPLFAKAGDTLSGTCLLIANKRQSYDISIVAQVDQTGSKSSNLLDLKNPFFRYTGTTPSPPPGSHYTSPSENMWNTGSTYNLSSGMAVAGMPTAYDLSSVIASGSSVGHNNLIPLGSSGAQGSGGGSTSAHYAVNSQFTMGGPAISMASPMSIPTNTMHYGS
The experiment in a line: CARM1 histone methyltransferase (biochemical) assay. The settings on record: for IC50: 30 min preincubation, IC50 measured at 120 minutes. On the procedure:
CARM1 activity was measured as previously reported for the histone methyltransferases PRMT1/6/8[65] and PRMT5[58]. Briefly, CARM1 was preincubated with compounds for 30 minutes at room temperature before reactions were initiated. […] The assays were quenched by the addition of 300 μM unlabeled SAM. The quantity of ^3H-labeled peptide produced was measured by Flashplate on a Topcount reader. Further details can be found in the Supplementary Methods.
Histone methyltransferase assay
The compounds were preincubated with CARM1 for 30 minutes at room temperature before the reactions were initiated by the addition of substrates. […]
containing 20 mM bicine, 1 mM tris(2-carbox yethyl)phosphine, 0.005% bovine skin gelatin and 0.002% Tween-20, pH 7.5 and 2% DMSO. The peptide sequence was biotin-aminohexanoate- […]
eKS AP-amide, where RMe is a monomethylated arginine residue (21st
Century Biochemicals, Marlboro, MA). After 2 hours, assa ys were quenched b y the addition of 300 μM unlabeled SAM. The reactions were tran sferred to a 384-well Flashplate (Perkin Elmer) and the biotinylated peptides were allowed to bind to the streptavidin surface for at least 1 hour before being washed once with 0.1% Tween 20. The quantit y of 3H-labeled peptide bound to the Flashplate surface was counted on a Topcount reader as counts per minute (cpm). % Inhibition values wer e calculated and IC50 values were fit using the 3 -param eter IC50 equation below:
YY = BBBBBBBBBBBB + (100 − BBBBBBBBBBBB )HHHHHHHH CCCCCCCCCCHHCCHHCCCCCC where top is fixed at 100 or the maximum inhibition plateau , Y is % inhibition and X is […]
IC50 vs [peptide] data were fit to the noncom petitive Cheng- Prusoff […]
The effect of reaction time on compound potency was determined b y meas uring IC50 values from […]
to a one phase exponential deca y equation. […]
activity was measured under standard conditions after a 30 minute preincubation.
IC 50 values were d etermi ned and data wer e anal yz ed using the following eq uation: […]

In data set [2] the test system is asymmetric di-methyl PABP1 in RKO cells. The experiment in a line: In cell western (ICW) assay for asymmetric di-methyl PABP1. The settings on record: Homo sapiens, 48 h, read-out: CARM1 ICW IC50.
Procedure: In cell w estern assay f or detection of asymmetric di -methyl PABP1 an d DNA content RKO cells (ATCC) were maintained in growth medium (DMEM/Glutamax medium supplemented with 10% v/v heat inactivated fetal bovine serum and 100 units/mL penicillin-streptom ycin) and cultured at 37 °C under 5% CO2. Cells were seeded in assay medium at a concentration of 30,000 cells per m L to a pol y -D-l ys ine coated 384 well culture plate with 50 µ L per well. Compound (100 nL) from a 96-well sou rce plate was add ed directl y to 384 well cell plate. Plates were incubated at 37°C, 5% CO2 for 48 hours. After two da ys of incubation, plates were brought to room temperature outside of the incubator for ten minutes and blotted on paper towels to remove cell media. Cells were fixed for 20 minutes atroom temperature b y adding 50 µl of 8% PFA followed by aspiration of supernatant. Cells were then permeabilized by addition of 50 µ L of i ce cold 100% methanol directl y to each well and incubated for 30 min at room temperature. After 30 min, plates were washed 2 times with 100 µL per well of wash buffer (1X PBS). Next 60 µL per well of Odysse y blocking buffer (Od ysse y Buffer wi th 0.1% Tween 20 (v/v)) were added to each plate and incubat ed 1 hour at room temperature. Blocking buffer was removed and 20 µ L per well of primar y antibod y was added (as ymmetric-methyl PABP1) diluted 1:400 in Odysse y buffer with 0.1% Tween 20 (v/v)) and plates were incubated overni ght (16 hours) at 4°C. Plates were washed 5 times wit h 100 µ L per well of wash buffer. Next 20 µL per well of secondar y ant ibody was added (1:800 800CW goat anti-rabbit IgG (H+L) antibod y, 1:2000 DRAQ5 in Odyss ey buffer with 0.1% Tween 20 (v/v)) and incubated for 1 hour at room temperature. The plates were washed 5 times wit h 100 µ L per well wash buffer then 2 times with 100 µ L per well of w ater . Plates were allowed to dr y at room temper ature t hen imag ed on the Lico r Od ysse y machine. The ratio of as ymmetri c di-methyl PABP1 to DR AQ5 was det ermined for each well and then used to determine percent i nhibition relative to DMSO control. IC 50 curves were generated us ing triplicate wells per concentration of compound.
The test system of data set [3] is 20 other diverse HMTs in the Epizyme enzyme panel. The experiment in a line: Methyltransferase cross screening panel.
Data set [4] has as its system PABP1, SmB, aDMA and histone H3 methylation in RPMI-8226 cells. The experiment in a line: Western blot of cellular methyl marks, RPMI-8226. Format: cell-based, human. The settings on record: for IC50: Homo sapiens. On the technique in general: Immunoblotting shows a protein as a band on a membrane.
Data set [5] is described as follows: Pharmacokinetic profiles in mice and rats. Format: in vivo.
The mark [6] stands for this setting: read-out: CARM1 Biochemical IC50.

Each structure is given as a SMILES string. Like-named read-outs stand apart in the source and are kept apart here.

The term IC50 denotes the point on the concentration scale where inhibition reaches its midpoint. For the compound `Cn1cnc2ccc(-c3cccc(OCC(O)CN)c3)nc21` (stereo not drawn) [Compound 1], the half-inhibitory concentration (IC50) was 2300 ± 800 nM in data set [1] (read-out: CARM1 IC50) and over 20000 nM in data set [2].

As for `CC(C)n1ncc2c(N3CCOCC3)cc(-c3cccc(OCC(O)CN)c3)nc21` (stereo not drawn) [Compound 2], the “fold more potent against CARM1 than compound 1” value in data set [1] is 50 fold. In addition, the values for the 50% inhibitory concentration (IC50) in data set [1] (setting [6]) and in data set [2] were 46 ± 9 nM and 19000 nM, respectively. Also, the “selectivity for CARM1 over 20 other diverse HMTs” value in data set [3] is reported as “more than 100 fold”.

For the compound `CNC[C@@H](O)COc1cc(-c2nc(-c3c(C)noc3C)c(C)c(N3CC4(CCN(C(=O)OC)CC4)C3)n2)ccc1Cl` [EPZ029751, methyl 2-(2-(4-chloro-3-((R)-2-hydroxy-3-(methylamino)propoxy)phenyl)-6-(3,5-dimethylisoxazol-4-yl)-5-methylpyrimidin-4-yl)-2,7-diazaspiro[3.5]nonane-7-carboxylate], the “biochemical potency against CARM1 compared with EZM2302” value in data set [1] is listed as “much weaker biochemical potency”. In addition, the half-inhibitory concentration (IC50) in data set [1] (setting [6]) is over 1000 nM; in data set [2], over 6500 nM; in data set [4] (96 h, RPMI-8226, four days, 0.0003 to 5 µM, read-out: IC50, SmBme0), over 5000 nM; in data set [4] (RPMI-8226, 96 h treatment, read-out: IC50, methylation of PABP1 (PABP1me2a)), over 5000 nM. Also, the changes in methylation result in data set [4] (RPMI-8226, four days) was “No robust changes in methylation”.

For `CNC[C@@H](O)COc1ccc(Cl)c(-c2nc(-c3c(C)noc3C)c(C)c(N3Cc4cnc(N5CCC5)nc4C3)n2)c1` [EPZ025654], the IC50 is 3 nM in data set [1] (setting [6]) and 11 nM in data set [2]. In addition, the pharmacokinetic profiles entry in data set [5] is on record as “without satisfactory pharmacokinetic profiles”.

(Values after PMC5740082, “Identification of a CARM1 Inhibitor with Potent In Vitro and In Vivo Activity in Preclinical Models of Multiple Myeloma” (Scientific Reports, 2017).)
